Source: ChEMBL document CHEMBL1201862, “PubChem BioAssay data set” (2004)
Activity calls are given as the source filed them.

Legend:
[1] = molecular target: T1, Aminopeptidase N (Plasmodium falciparum FcB1/Columbia, UniProt O96935); experiment: malaria alanyl aminopeptidase activity blockers – biochemical, fluorogenic H-Leu-NHMec substrate, 1536-well (AID 1445); set-up: species or system Plasmodium falciparum 3D7, 3D7
T1 sequence (O96935 whole entry): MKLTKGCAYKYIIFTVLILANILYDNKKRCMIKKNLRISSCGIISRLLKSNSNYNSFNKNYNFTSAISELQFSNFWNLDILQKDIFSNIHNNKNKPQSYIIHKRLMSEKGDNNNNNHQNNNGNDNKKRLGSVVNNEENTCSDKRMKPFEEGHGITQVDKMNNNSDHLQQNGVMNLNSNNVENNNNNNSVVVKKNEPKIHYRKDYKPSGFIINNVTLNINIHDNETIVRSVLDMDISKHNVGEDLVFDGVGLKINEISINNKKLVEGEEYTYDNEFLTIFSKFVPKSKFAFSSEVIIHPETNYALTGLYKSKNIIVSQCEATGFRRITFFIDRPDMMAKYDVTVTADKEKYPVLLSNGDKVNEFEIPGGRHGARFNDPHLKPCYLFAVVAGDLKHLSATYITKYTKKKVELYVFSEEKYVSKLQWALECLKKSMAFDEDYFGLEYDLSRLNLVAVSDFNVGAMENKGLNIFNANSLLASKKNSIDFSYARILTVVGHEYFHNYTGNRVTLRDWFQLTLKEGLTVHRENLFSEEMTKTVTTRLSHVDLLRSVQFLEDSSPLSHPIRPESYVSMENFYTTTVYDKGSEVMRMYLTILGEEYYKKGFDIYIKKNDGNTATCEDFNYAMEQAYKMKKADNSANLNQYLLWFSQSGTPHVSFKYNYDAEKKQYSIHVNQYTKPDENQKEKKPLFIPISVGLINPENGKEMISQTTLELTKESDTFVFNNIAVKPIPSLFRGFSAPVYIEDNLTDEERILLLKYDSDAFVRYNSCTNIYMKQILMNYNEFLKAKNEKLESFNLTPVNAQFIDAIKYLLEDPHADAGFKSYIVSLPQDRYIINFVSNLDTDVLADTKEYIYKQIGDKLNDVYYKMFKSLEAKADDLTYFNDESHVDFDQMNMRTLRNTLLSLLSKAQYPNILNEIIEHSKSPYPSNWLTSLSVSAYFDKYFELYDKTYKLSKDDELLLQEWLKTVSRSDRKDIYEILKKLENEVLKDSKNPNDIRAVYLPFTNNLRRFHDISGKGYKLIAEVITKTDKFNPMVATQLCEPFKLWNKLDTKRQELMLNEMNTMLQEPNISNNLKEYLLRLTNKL

[2] = molecular target: T2, Corticotropin-releasing factor receptor 2/Corticotropin-releasing factor-binding protein (Homo sapiens, UniProt P24387+Q13324); experiment: Dose Response confirmation of uHTS hits for small molecule antagonists of the CRF-binding protein and CRF-R2 receptor complex.; assay type: functional; details: read-out: IC50_Mean
T2 sequence (Q13324 whole entry): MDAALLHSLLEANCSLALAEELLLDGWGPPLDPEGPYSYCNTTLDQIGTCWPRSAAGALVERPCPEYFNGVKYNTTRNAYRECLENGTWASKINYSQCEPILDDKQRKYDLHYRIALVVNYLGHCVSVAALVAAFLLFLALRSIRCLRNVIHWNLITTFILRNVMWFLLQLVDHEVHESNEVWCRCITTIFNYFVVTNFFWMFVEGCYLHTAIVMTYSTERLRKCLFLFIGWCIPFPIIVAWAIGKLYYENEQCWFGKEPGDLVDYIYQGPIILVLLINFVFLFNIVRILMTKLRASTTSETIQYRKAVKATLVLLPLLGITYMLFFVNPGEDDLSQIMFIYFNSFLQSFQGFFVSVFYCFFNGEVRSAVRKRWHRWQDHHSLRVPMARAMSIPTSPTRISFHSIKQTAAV
T2 sequence (P24387 whole entry): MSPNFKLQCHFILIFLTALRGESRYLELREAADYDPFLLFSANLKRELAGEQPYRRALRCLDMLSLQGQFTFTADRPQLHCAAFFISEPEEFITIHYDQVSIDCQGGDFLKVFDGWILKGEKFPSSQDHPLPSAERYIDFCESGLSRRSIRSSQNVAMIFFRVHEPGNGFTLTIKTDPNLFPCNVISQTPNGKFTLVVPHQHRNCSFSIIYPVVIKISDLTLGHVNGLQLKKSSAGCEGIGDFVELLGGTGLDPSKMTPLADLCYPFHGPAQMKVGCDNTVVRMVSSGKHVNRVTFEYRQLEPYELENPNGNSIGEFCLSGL

[3] = molecular target: Genome polyprotein (dengue virus type 2, UniProt P29990); experiment: flavivirus cap methylation enzyme inhibition – biochemical, confirmation dose response, primary screen (AID 588689); assay type: functional
[4] = molecular target: T2, Corticotropin-releasing factor receptor 2/Corticotropin-releasing factor-binding protein; experiment: activators of CRF receptor 2 with binding protein – uHTS hits, confirmation (AID 602473); assay type: functional; details: read-out: EC50_Mean
[5] = molecular target: T3, Short transient receptor potential channel 4 (Mus musculus, UniProt Q9QUQ5); experiment: block of DAMGO-driven TRPC4 calcium entry – cell-based, HEK293 TRPC4/mu-opioid, Fluo-4 calcium, dose response (AID 434942); assay type: functional;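 further: potency of inhibitors blocking the TRPC4 calcium response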
T3 sequence (Q9QUQ5 whole entry): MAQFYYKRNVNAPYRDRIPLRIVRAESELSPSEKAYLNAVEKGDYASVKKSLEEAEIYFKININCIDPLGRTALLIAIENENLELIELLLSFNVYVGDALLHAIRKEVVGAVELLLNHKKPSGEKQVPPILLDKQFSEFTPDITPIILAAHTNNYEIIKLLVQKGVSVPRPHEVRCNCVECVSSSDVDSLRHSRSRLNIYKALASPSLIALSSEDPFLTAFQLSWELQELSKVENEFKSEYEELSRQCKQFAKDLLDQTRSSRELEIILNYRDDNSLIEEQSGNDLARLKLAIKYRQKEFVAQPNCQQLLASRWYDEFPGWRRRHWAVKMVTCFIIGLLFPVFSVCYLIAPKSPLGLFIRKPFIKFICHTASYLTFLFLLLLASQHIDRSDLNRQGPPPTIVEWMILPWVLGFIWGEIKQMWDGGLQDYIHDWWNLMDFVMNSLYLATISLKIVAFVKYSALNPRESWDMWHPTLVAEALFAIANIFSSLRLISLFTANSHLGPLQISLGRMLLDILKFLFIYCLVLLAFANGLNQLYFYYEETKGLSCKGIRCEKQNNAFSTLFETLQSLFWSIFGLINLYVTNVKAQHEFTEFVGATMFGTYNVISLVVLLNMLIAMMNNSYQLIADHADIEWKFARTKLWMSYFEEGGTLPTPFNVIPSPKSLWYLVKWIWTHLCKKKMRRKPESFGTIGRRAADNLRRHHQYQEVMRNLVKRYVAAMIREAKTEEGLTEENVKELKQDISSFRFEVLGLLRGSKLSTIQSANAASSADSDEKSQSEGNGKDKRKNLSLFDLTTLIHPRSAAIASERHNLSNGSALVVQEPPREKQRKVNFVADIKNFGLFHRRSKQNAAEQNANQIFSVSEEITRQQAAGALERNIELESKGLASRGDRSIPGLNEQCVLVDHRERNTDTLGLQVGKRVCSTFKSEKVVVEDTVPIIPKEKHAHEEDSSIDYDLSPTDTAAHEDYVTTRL

[6] = test system: Vero; experiment: viability of Vero cells under compound – cytotoxicity control for flavivirus capping enzyme inhibitors (AID 588742); assay type: functional; details: Chlorocebus sabaeus
[7] = blockers of CRF-binding protein–CRF-R2 complex – cell-based, uHTS hits, 384-well, dose response (AID 651639); assay type: functional, Homo sapiens; details: read-out: IC50_Mean
[8] = molecular target: T4, DNA repair and recombination protein RAD54-like (Homo sapiens, UniProt Q92698); experiment: RAD54 Holliday junction migration blockers – biochemical, fluorescence, cherry-picked samples, dose series, confirmation (AID 651657); assay type: functional
T4 sequence (Q92698 whole entry): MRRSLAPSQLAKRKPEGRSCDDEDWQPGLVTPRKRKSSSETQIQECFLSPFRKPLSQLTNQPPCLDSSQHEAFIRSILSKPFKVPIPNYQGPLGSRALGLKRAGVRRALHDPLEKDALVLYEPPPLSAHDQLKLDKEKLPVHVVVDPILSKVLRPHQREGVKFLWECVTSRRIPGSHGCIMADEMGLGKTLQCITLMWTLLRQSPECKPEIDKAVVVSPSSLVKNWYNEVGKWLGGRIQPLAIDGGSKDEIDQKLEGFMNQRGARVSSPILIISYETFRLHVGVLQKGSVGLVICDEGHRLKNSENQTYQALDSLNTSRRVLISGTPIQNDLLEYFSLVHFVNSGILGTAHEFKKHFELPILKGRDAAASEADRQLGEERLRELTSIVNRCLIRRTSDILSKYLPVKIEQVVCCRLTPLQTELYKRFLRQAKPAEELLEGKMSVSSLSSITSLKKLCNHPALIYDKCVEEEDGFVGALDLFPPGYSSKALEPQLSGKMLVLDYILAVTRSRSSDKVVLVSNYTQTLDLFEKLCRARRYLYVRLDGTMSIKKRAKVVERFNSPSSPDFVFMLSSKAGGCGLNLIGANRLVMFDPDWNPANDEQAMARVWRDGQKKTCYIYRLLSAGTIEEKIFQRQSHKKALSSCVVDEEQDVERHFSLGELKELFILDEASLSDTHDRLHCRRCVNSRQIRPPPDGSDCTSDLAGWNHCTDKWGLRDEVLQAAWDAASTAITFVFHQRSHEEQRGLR

[9] = molecular target: T5, Zinc finger protein mex-5 (Caenorhabditis elegans, UniProt Q9XUB2); experiment: potency of MEX-5 RNA-binding blockers – biochemical, C. elegans, fluorescence polarization, dose response (AID 1960)
T5 sequence (Q9XUB2 whole entry): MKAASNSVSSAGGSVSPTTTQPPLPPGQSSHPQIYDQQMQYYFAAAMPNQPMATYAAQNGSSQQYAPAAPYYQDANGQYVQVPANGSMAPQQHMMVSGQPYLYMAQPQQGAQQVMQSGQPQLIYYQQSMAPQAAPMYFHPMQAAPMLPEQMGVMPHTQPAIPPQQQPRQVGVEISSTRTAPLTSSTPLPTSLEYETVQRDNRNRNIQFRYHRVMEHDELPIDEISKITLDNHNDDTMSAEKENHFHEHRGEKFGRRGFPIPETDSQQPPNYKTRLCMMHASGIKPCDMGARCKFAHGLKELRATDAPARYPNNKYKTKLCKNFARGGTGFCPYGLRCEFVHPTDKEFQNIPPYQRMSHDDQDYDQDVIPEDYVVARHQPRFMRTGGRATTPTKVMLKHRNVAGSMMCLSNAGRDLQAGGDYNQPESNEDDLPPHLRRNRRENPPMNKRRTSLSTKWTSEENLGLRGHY

[10] = molecular target: T6, RNA-binding protein pos-1 (Caenorhabditis elegans, UniProt G5EF15); experiment: disruptors of C. elegans POS-1 RNA interaction – biochemical, fluorescence polarization, dose response (AID 1964);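 further: purified POS-1 fused to maltose binding protein made in E. coli; potency of compounds blocking POS-1 binding to fluorescent RNA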
T6 sequence (G5EF15 whole entry): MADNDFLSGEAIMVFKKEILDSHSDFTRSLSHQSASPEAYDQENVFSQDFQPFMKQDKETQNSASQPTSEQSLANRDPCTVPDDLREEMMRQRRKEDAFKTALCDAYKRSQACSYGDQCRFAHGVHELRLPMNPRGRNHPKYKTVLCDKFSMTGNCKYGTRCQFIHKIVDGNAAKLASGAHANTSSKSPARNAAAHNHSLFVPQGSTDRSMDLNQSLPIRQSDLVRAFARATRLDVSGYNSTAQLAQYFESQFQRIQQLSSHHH

[11] = microbe, parasite or virus in culture; assay type: functional; details: Mycobacterium tuberculosis
[12] = molecular target: T7, ATP-dependent translocase ABCB1 (Homo sapiens, UniProt P08183); experiment: inhibition of BCRP-mediated JC-1 efflux – Ig-MXP3 cells, flow cytometry, set 2, dose response (AID 504566); assay type: functional; details: read-out: EC50_MICROM_;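 further: flow cytometry median green fluorescence of retained JC-1 dye; potency of efflux pump inhibition measured as rising substrate retention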
[13] = molecular target: T7, ATP-dependent translocase ABCB1; experiment: P-gp JC-1 efflux blockade concentration-response – Jurkat-DNR cells, flow cytometry, set 2, dose response (AID 504569); assay type: functional; details: read-out: EC50_MICROM_;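 further: potency of pump inhibitors that raise cellular JC-1 green fluorescence up to the nicardipine level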
[14] = molecular target: Potassium channel subfamily K member 9 (Homo sapiens, UniProt Q9NPC2); experiment: KCNK9 flux blockade, concentration-response – cell-based, FluxOR thallium flux, selectivity assay for TASK1 inhibitor project, SAR follow-up (AID 652211); assay type: functional;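 further: potency is for inhibitors of the channel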
Potassium channel subfamily K member 9, sequence (Q9NPC2 whole entry): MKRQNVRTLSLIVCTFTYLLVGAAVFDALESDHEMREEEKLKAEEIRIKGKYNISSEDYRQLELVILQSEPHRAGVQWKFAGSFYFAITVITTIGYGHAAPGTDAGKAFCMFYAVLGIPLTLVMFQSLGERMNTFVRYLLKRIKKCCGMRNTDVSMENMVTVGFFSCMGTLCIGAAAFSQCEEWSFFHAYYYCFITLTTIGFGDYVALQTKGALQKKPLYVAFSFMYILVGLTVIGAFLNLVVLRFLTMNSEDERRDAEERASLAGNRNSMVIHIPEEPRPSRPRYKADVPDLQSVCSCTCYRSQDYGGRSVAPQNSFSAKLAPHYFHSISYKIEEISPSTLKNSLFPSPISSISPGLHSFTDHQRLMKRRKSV

T7 sequence (P08183 whole entry): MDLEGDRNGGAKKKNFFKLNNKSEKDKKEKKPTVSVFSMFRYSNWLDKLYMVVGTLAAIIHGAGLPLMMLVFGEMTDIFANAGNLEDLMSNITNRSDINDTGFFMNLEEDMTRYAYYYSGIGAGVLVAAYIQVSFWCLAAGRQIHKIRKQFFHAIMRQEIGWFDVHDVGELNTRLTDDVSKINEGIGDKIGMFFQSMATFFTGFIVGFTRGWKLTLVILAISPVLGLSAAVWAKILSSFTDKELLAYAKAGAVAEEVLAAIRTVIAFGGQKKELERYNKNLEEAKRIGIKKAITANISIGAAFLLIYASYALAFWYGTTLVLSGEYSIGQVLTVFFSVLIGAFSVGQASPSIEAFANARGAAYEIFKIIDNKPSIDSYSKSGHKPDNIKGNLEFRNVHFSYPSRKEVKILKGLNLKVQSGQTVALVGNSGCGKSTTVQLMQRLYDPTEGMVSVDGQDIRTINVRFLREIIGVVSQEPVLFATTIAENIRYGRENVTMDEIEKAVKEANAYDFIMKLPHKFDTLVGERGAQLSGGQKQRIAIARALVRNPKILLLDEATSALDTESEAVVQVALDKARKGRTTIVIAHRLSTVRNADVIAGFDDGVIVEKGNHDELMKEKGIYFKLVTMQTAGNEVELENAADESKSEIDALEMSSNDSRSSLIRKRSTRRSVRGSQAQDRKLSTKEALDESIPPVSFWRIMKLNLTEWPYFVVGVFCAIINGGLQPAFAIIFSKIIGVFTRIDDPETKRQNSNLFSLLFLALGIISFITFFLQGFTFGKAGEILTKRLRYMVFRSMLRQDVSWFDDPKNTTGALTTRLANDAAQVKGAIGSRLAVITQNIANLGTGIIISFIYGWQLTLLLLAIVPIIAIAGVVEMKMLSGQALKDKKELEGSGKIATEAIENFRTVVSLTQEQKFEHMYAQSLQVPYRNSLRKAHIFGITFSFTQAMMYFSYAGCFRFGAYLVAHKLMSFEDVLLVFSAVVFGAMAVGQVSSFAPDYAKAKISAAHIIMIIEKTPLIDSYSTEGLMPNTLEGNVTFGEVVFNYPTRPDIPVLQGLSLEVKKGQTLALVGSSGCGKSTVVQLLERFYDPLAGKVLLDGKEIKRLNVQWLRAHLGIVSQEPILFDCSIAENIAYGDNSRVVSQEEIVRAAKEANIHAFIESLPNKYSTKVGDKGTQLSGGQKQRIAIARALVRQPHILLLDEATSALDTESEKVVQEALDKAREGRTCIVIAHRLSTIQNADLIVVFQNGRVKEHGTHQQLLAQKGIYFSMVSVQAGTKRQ
Genome polyprotein, sequence (P29990 2492-3391 limits assumed): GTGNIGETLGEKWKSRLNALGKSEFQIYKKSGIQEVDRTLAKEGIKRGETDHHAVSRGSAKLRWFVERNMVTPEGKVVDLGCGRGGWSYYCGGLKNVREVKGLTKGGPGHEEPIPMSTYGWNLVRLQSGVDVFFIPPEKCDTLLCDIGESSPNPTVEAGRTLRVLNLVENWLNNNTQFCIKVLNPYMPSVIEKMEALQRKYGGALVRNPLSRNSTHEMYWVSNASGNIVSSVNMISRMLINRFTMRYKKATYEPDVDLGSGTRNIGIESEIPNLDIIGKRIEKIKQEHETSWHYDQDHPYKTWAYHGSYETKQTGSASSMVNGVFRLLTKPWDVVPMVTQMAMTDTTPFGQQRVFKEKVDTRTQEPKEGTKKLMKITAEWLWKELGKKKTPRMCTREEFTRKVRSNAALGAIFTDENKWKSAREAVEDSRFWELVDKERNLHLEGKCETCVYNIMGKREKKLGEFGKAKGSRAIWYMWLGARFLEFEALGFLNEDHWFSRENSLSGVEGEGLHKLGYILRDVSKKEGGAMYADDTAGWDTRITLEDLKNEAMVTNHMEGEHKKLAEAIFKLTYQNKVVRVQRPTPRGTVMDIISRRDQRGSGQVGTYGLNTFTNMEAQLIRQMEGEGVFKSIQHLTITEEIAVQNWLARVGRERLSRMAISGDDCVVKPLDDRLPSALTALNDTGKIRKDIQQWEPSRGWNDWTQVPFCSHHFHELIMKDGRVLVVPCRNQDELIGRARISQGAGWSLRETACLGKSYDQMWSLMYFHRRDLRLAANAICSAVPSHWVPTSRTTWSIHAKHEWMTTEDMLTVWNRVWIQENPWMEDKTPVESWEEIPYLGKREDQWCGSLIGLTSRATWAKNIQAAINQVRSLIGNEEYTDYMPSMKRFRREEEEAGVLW

With `COc1cc(/C=C2\SC(=S)N(NS(=O)(=O)c3ccc(C)cc3)C2=O)cc(OC)c1OC` the IC50 [1] was 33.1 µM (active), the IC50 [2] was 12.6 µM (active) and the IC50 [3] was 37.4 µM (active). For the same compound, the EC50 [4] was > 53 µM (inactive), the EC50 [5] was 6.68 µM (active) and the CC50 [6] was > 40 µM (active). For the same compound, the IC50 [7] was 10.4 µM (active).

For `COc1ccc(CCNC(=O)c2cc3c(=O)n4cccc(C)c4nc3n(CCCN3CCOCC3)c2=N)cc1`, the AC50 [8] was 16.2 µM (active), the EC50 [9] was 192 µM (active) and the EC50 [10] was 66.4 µM (active).

For `COc1ccc(CCNc2nc(N3CCCCC3)nc(N3CCCCC3)n2)cc1OC`, the CC50 [11] was > 40 µM (active), the IC50 [2] was 7.8 µM (active) and the EC50 [4] was > 53 µM (inactive). The IC50 [7] was > 20 µM (inactive).

For `Cc1nc2cc(-c3cccc(Cl)c3)nn2c(N2CCN(C(=O)c3ccco3)CC2)c1C`, the EC50 [12] was 3.41 µM (active) and the EC50 [13] was 7.87 µM (active).

In the case of `CN1CCN(CCNC(=O)c2cc3c(=O)n(C)c4ccccc4c3n2C)CC1`, the AC50 [8] is reported as 35.3 µM (active).

With `O=C(c1ccsc1)N1CCN(c2cc(-c3ccccc3)nc3cc(-c4cccc(Cl)c4)nn23)CC1` the EC50 [12] was 1.63 µM (active) and the EC50 [13] was 3.4 µM (active).

For `Cc1nn(-c2cccc(Cl)c2)c2nc(C(F)(F)F)nc(O)c12`, the IC50 [7] was 17.8 µM (active).

In the case of `COc1ccc(-c2cc3nc(C)c(C)c(N4CCN(C(=O)c5ccsc5)CC4)n3n2)cc1`, the EC50 [12] is reported as 1.79 µM (active) and the EC50 [13] is reported as 3.83 µM (active).

For `COc1ccccc1C(=O)Nc1cccc(NC(=O)c2ccccc2OC(F)(F)F)c1`, the IC50 [14] was 1.17 µM (active).

With `O=C(Nc1cccc(NC(=O)c2ccccc2C(F)(F)F)c1)c1ccccc1` the IC50 [14] was 7.21 µM (active).

With `COc1ccccc1C(=O)Nc1cccc(NC(=O)c2ccccc2C)c1` the IC50 [14] was 3.49 µM (active).
